Measured values published in patent US11479559B2, “Urea-substituted aromatic ring-linked dioxinoquinoline compounds, preparation method and uses thereof” (BEIJING SCITECH-MQ PHARMACEUTICALS LIMITED, priority 2018, dated 2022).
Where two headings read alike, the source gives them in different places.

Columns and labels:
VEGFR2 tyrosine kinase = VEGFR2 tyrosine kinase (Homo sapiens (Human), UniProt P35968); experiment: Assay of small molecular compounds for inhibiting the activity of VEGFR-2 kinase (LANCE TR-FRET)
Experimental: (§1) The assay is based on the LANCE TR-FRET technology of Perkin Elmer Inc., and the assay method is as follows:
(§2) 2.5 μL of the gradient-diluted compounds were taken with a transfer pipette to a 384-well plate.
Addition of enzyme: 5 μL of 2× VEGFR2 kinase solution (concentration was 0.5 nM) was taken with a transfer pipette to the corresponding reaction well of the 384-well plate, mixed well and pre-reacted at room temperature for 30 minutes.
2.5 μL 4× Ultra ULight™-JAK-1 (Tyr1023) Peptide (concentration was 200 nM)/ATP (concentration was 40 μMM) mixture was taken with a transfer pipette to the corresponding reaction well of the 384-well plate.
Negative control: 2.5 μL/well 4× substrate/ATP mixture and 7.5 μL 1× Kinase Assay Buffer were added to the wells of the 384-well plate.
(§3) The final concentration of DMSO in the reaction system was 4%.
(§4) The mixture was mixed well and then centrifuged and reacted at room temperature in dark for 60 min.
(§5) The 384-well plate was placed into the Envision plate reader and the signal was detected using the appropriate program.

RET tyrosine kinase = RET tyrosine kinase (Homo sapiens (Human), UniProt P07949); experiment: Assay of small molecular compounds for inhibiting the activity of RET kinase (LANCE TR-FRET)
Sequence of RET tyrosine kinase (P07949 29-1114): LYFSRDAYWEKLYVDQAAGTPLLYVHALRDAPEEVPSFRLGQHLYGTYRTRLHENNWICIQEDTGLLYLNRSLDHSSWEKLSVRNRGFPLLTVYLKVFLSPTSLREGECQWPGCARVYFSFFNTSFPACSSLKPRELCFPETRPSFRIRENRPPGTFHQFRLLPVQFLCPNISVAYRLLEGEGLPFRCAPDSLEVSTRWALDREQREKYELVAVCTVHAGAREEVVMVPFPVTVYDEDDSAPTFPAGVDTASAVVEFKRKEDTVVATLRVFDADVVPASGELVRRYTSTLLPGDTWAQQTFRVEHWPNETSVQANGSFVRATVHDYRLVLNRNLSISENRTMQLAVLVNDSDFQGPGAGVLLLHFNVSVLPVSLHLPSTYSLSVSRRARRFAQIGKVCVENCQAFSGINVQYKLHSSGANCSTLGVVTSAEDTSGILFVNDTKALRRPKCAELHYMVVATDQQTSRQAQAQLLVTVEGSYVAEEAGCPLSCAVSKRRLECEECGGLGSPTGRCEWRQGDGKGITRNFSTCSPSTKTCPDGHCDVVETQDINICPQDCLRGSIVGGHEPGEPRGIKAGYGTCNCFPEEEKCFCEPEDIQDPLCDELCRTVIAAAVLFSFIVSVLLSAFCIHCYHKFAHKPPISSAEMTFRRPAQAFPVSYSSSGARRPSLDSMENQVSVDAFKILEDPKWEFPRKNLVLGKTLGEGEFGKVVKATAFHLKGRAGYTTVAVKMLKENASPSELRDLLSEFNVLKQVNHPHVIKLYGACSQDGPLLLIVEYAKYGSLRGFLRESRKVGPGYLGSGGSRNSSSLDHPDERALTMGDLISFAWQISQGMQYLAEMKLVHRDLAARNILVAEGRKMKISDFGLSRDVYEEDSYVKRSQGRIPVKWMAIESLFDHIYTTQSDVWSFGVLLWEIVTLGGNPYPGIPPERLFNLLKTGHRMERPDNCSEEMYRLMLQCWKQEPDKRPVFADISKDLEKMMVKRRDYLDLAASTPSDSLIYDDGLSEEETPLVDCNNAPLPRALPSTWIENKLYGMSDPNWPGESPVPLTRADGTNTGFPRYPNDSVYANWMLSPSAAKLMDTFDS
Experimental: as §1, §2
Addition of enzyme: 5 μL of 2× RET kinase solution (concentration was 0.8 nM) was taken with a transfer pipette to the corresponding reaction well of the 384-well plate, mixed well and pre-reacted at room temperature for 30 minutes.
2.5 μL 4× Ultra ULight™-JAK-1 (Tyr1023) Peptide (concentration was 200 nM)/ATP (concentration was 40 μM) mixture was taken with a transfer pipette to the corresponding reaction well of the 384-well plate.
as §3, §4, §5

Sequence of VEGFR2 tyrosine kinase (P35968 20-1356): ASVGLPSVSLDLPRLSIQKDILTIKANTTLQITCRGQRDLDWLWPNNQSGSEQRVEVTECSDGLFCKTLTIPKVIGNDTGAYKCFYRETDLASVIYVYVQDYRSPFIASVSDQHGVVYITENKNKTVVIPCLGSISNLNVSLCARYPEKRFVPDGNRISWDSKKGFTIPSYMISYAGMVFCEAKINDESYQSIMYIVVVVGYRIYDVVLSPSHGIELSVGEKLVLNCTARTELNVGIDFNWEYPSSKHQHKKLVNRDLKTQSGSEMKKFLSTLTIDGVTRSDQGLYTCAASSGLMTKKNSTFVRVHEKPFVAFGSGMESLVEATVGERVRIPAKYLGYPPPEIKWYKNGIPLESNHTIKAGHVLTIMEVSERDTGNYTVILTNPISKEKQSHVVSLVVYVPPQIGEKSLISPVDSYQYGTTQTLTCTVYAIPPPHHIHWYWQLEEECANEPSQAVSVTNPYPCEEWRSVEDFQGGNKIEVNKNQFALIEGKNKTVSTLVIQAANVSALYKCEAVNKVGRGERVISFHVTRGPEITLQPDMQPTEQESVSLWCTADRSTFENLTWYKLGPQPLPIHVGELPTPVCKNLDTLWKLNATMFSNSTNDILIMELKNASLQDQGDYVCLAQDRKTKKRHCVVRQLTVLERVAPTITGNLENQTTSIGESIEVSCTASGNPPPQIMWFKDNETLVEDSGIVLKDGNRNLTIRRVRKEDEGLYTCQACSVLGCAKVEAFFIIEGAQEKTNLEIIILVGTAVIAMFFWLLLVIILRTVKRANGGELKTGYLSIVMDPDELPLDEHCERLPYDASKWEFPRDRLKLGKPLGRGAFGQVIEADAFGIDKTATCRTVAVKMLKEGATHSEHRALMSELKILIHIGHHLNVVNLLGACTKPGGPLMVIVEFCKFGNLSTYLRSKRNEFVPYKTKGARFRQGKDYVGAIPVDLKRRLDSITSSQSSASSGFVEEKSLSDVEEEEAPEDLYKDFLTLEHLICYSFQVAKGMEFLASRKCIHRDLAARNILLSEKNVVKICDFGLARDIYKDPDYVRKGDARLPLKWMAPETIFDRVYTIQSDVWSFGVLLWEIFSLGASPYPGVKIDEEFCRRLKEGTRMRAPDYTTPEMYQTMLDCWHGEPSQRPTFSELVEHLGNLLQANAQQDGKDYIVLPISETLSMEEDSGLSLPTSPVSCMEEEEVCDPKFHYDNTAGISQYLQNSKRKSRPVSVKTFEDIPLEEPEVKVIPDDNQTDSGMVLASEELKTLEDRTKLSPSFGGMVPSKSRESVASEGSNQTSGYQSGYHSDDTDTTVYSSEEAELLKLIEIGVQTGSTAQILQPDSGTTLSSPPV

Row | Structure (SMILES) | IC50 (VEGFR2 tyrosine kinase; read-out: VEGFR-2 IC50) | IC50 (RET tyrosine kinase; read-out: RET IC50) | IC50 (VEGFR2 tyrosine kinase) | IC50 (RET tyrosine kinase)
1 | COCCOc1cc2nccc(Oc3ccc(NC(=O)NC4CCC4)c(Cl)c3)c2c2c1OCCO2 [Example 70, 1-(2-chloro-4-((5-(2-methoxyethoxy)-2,3-dihydro-[1,4]dioxino[2,3-f]quinolin-10-yl)oxy)phenyl)-3-cyclobutylurea] | < 50 nM | < 50 nM |  | 
2 | O=C(Nc1ccc(Oc2ccnc3cc(OCCCN4CCCC4)c4c(c23)OCCO4)cc1Cl)NC1CC1 [Example 53, 1-(2-chloro-4-((5-(3-(pyrrolidin-1-yl)propoxy)-2,3-dihydro-[1,4]dioxino[2,3-f]quinolin-10-yl)oxy)phenyl)-3-cyclopropylurea] | < 50 nM | < 50 nM |  | 
3 | CN(C)CCCCCCOc1cc2nccc(Oc3ccc(NC(=O)Nc4ccc(Cl)c(C(F)(F)F)c4)cc3)c2c2c1OCCO2 [Example 30, 1-(4-chloro-3-(trifluoromethyl)phenyl)-3-(4-((5-((6-(dimethylamino)hexyl)oxy)-2,3-dihydro-[1,4]dioxino[2,3-f]quinolin-10-yl)oxy)phenyl)urea] |  | < 50 nM | 50 to 500 nM | 

More lines, now with the values ahead:

Row | IC50 (VEGFR2 tyrosine kinase; read-out: VEGFR-2 IC50) | IC50 (RET tyrosine kinase; read-out: RET IC50) | IC50 (VEGFR2 tyrosine kinase) | IC50 (RET tyrosine kinase) | Structure (SMILES)
4 | < 50 nM | < 50 nM |  |  | COCCCOc1cc2nccc(Oc3ccc(NC(=O)NC4CC4)c(Cl)c3)c2c2c1OCCO2 [Example 51, 1-(2-chloro-4-((5-(3-methoxypropoxy)-2,3-dihydro-[1,4]dioxino[2,3-f]quinolin-10-yl)oxy)phenyl)-3-cyclopropylurea]
5 | < 50 nM | < 50 nM |  |  | CNC(=O)Nc1ccc(Oc2ccnc3cc(OC)c4c(c23)OCCO4)cc1Cl [Example 79, 1-(2-chloro-4-((5-methoxy-2,3-dihydro-[1,4]dioxino[2,3-f]quinolin-10-yl)oxy)phenyl)-3-methylurea]
6 |  |  | < 50 nM | < 50 nM | COc1cc2nccc(Oc3ccc(NC(=O)NC4CC4)c(Cl)c3)c2c2c1OCCO2 [Example 7, 1-(2-chloro-4-((5-methoxy-2,3-dihydro-[1,4]dioxino[2,3-f]quinolin-10-yl)oxy)phenyl)-3-cyclopropylurea]
